From ChEMBL document CHEMBL5584201, “Amphiphilic tribasic galactosamines potentiate rifampicin in Gram-negative bacteria at low Mg++/Ca++concentrations” (Bioorg Med Chem Lett, 2024)

Assays:
Type in all cases: functional
Acinetobacter baumannii [1] = test: Potentiation of rifampicin-induced antibacterial activity against Acinetobacter baumannii ATCC 17978 assessed as fold change in rifampicin MIC in low salt containing media by Mueller-Hinton broth based assay
Pseudomonas aeruginosa [2] = test: Potentiation of rifampicin-induced antibacterial activity against Pseudomonas aeruginosa PAO1 assessed as fold change in rifampicin MIC in low salt containing media by Mueller-Hinton broth based assay
Acinetobacter baumannii [3] = test: Potentiation of rifampicin-induced antibacterial activity against Acinetobacter baumannii ATCC 17978 assessed as rifampicin MIC in low salt containing media by Mueller-Hinton broth based assay
Pseudomonas aeruginosa [4] = test: Potentiation of rifampicin-induced antibacterial activity against Pseudomonas aeruginosa PAO1 assessed as rifampicin MIC in low salt containing media by Mueller-Hinton broth based assay
Escherichia coli [5] = test: Potentiation of rifampicin-induced antibacterial activity against Escherichia coli ATCC 25922 assessed as rifampicin MIC in low salt containing media by Mueller-Hinton broth based assay
Acinetobacter baumannii [6] = test: Antibacterial activity against Acinetobacter baumannii ATCC 17978 in low salt containing media by Mueller-Hinton broth based assay
Pseudomonas aeruginosa [7] = test: Antibacterial activity against Pseudomonas aeruginosa PAO1 in low salt containing media by Mueller-Hinton broth based assay
Escherichia coli [8] = test: Antibacterial activity against Escherichia coli ATCC 25922 in low salt containing media by Mueller-Hinton broth based assay
Escherichia coli [9] = test: Potentiation of rifampicin-induced antibacterial activity against Escherichia coli ATCC 25922 assessed as fold change in rifampicin MIC in low salt containing media by Mueller-Hinton broth based assay

SMILES	MIC (Acinetobacter baumannii [3]) [µg/mL]	MIC (Pseudomonas aeruginosa [4]) [µg/mL]	MIC (Escherichia coli [5]) [µg/mL]	MIC (Acinetobacter baumannii [6]) [µg/mL]	MIC (Pseudomonas aeruginosa [7]) [µg/mL]	MIC (Escherichia coli [8]) [µg/mL]	fold change (FC) (Acinetobacter baumannii [1])	fold change (FC) (Pseudomonas aeruginosa [2])	fold change (FC) (Escherichia coli [9])
NC[C@H]1O[C@@H](OCCCc2ccccc2)[C@H](N)[C@@H](OCc2ccc3ccccc3c2)[C@H]1N	16	16	16	128	> 128	64	32	2	32
CCCCCCCCO[C@H]1[C@@H](N)[C@@H](CN=[N+]=[N-])O[C@@H](OCc2ccc3ccccc3c2)[C@@H]1N	4	8	1	16	32	8	128	2	8

Now from value to compound, other results behind:

MIC (Acinetobacter baumannii [3]) [µg/mL]	MIC (Pseudomonas aeruginosa [4]) [µg/mL]	MIC (Escherichia coli [5]) [µg/mL]	MIC (Acinetobacter baumannii [6]) [µg/mL]	MIC (Pseudomonas aeruginosa [7]) [µg/mL]	MIC (Escherichia coli [8]) [µg/mL]	SMILES	fold change (FC) (Acinetobacter baumannii [1])	fold change (FC) (Pseudomonas aeruginosa [2])	fold change (FC) (Escherichia coli [9])
8	16	8	32	> 128	32	CCCCCCCCO[C@@H]1O[C@H](CO)[C@H](N)[C@H](OCc2ccc3ccccc3c2)[C@H]1N	2	1	2
16	16	16	128	> 128	64	CCCCCCO[C@@H]1O[C@H](CN)[C@H](N)[C@H](OCc2ccc3ccccc3c2)[C@H]1N	32	1	32
1	2	0.5	4	8	4	CCCCCCCCCCCCO[C@@H]1O[C@H](CN)[C@H](N)[C@H](OCc2ccc3ccccc3c2)[C@H]1N	8	1	1
